This note sets out measurements from a melting point compilation (Tetko et al.; mined from patent text by program, amines drawn as free bases though some values may be those of a salt).

Broadly, the melting point is the temperature, or range, at which the solid turns liquid. Turning to `CCCCCCOc1c(F)cc(F)c(C(N)=O)c1F`, the melting point fell in the range of 89 to 90 °C.

In turn, `CCOCn1c(C(=O)c2cc(C)cc(C)c2)c(CC)c(=O)[nH]c1=O` had a melting point of 184 °C.

`Fc1ccc(Nc2ncnc(NN=Cc3ccc(OC(F)(F)F)cc3)n2)cc1C(F)(F)F`: the melting point lay in the range of 185 to 186 °C.

The compound `CC(=O)OC[C@@H]1CCCN1C(c1ccccc1)(c1ccccc1)c1ccccc1Cl` gave a melting point of 102 to 104 °C.

Compound `Cc1ccnc(Nc2nc(-c3cc(-c4ccc(Cl)cc4)no3)cs2)c1` displayed a melting point of 209 to 211 °C.

For `COc1cc2c(Nc3cccc(Cl)c3F)ncnc2cc1OC1CCN(C(=O)[C@@H](O)C(C)(C)C)CC1`, the melting point was in the range of 205 to 206 °C.

The compound `ON=Cc1ccc(OCc2csc(-c3ccccc3)n2)cc1` registered a melting point of 175 to 179 °C.

The compound `Fc1cccc(-c2cn([C@H]3CN4CCC3CC4)nn2)c1` gave a melting point of 120 °C.

`CCC1(C)OC(=O)C(c2ccccc2)C(=O)O1` (configuration not stated) came in with a melting point of 135 to 136 °C.

In the case of `COc1ccc(CNc2n[nH]c3ncnc(Nc4cccc(Cl)c4)c23)cc1OC`, the melting point was 228 to 232 °C.

`COc1ccc(C(=O)Nc2ccccc2CC2CCCCN2)cc1` (configuration not stated) displayed a melting point of 108 to 109 °C.

For the compound `C[C@H]1N(C(=O)c2ccc(C(F)(F)F)cc2F)CC(=O)O[C@@]1(Cn1cncn1)c1ccc(F)cc1F` (relative stereo), the melting point lay within 191 to 192 °C.

For the compound `CN1C(=O)c2cccc(S(=O)(=O)Cl)c2C1=O`, the melting point lay within 159 to 162 °C.

`CNc1ccc(N=O)cc1`: the melting point lay within 115 to 117 °C.

In the case of `COc1ccc(S(=O)(=O)Nc2ccccc2NC(=O)c2ccccn2)cc1`, the melting point is 174 to 175 °C.

The compound `COc1ccc(-c2c(-c3ccncc3)sc3nc(=O)cc(N)n23)cc1` registered a melting point of 267 to 271 °C.

`Cn1nc(-c2cnc3[nH]cc(C(=O)NC4CCCOC4)c3n2)c2ccc(Cl)cc21` (configuration not stated) gave a melting point of 320 to 323 °C.

Compound `Cc1occc1COC(C)CN(O)C(N)=O` (configuration not stated) returned a melting point of 101 to 102 °C.

The compound `CSC(=NC(=O)c1cccc(Br)c1)NC(=O)c1ccccc1` showed a melting point of 145 to 146 °C.

Regarding `O=C1NC(=S)S/C1=C\c1ccc(COc2ccc(C(=O)c3ccccc3)cc2)cc1`, the melting point fell in the range of 244 to 246 °C.

`CC(=O)c1c(-c2ccncc2)[nH]c(-c2ccncc2)c1C` displayed a melting point of 237 to 240 °C.

In the case of `CC1(C)CCc2c(-c3ccco3)nc3sc4c(NCc5ccccn5)ncnc4c3c2C1`, the melting point turned out to be 233 °C.

On to `Nc1nc2ccccc2c2c1nc(COc1ccccc1)n2CCOc1ccccc1`, for which the melting point was 168 to 170 °C.

`NCC1CCc2[nH]c3ccc(Cl)cc3c2C1` (configuration not stated) had a melting point of 142 to 144 °C.

For the compound `CCOC(=O)c1ccc(NCCCc2ccccc2OC)cc1`, the melting point was 106 to 109 °C.

The compound `Cc1cccc2c1CCN=C2c1ccc(Br)cc1` had a melting point of 60 to 61.5 °C.

In turn, `COc1ccccc1NC(=O)Nc1nc(Nc2ccc(CC(=O)O)cc2)nc(Nc2ccccc2-c2ccccc2)n1` came in with a melting point of more than 300 °C.

`NC(=O)N(O)Cc1sccc1Sc1ccc(Cl)cc1` came in with a melting point of 111 to 113 °C.

With `CNC(=O)C(Cc1ccc(OC)cc1)NC(=O)C(CC(C)C)C(S)CC(=O)NCC(=O)O` (configuration not stated), the melting point lay in the range of 228 to 231 °C.

`CN1c2cscc2C(=O)N(CCN2CCOCC2)c2ccccc21`: the melting point lay within 109 to 111 °C.

`O=C(O)c1ccc(NCCCCCCOc2ccc3ccccc3c2)cc1` yielded a melting point of 157 to 159 °C.

`COc1ccc2[nH]c(C)c(C(C)=O)c2c1` showed a melting point of 156 to 158 °C.

Compound `CSc1cc2c(N3CCc4ccc(Cl)cc43)ncnc2cc1Cl` yielded a melting point of 167 to 168 °C.

In turn, `Cc1nnc(-c2ccc3occ(-c4ccc(OS(C)(=O)=O)cc4)c3c2)o1` displayed a melting point of 139 to 140 °C.

As to `Cc1nnc(C)n1NC(=N)c1ccc(Cl)cc1`, the melting point fell in the range of 303 to 306 °C.

`CCC(Oc1cc(Cl)cc(Cl)c1Cl)C(=O)O` (configuration not stated) displayed a melting point of 106 to 114 °C.

In turn, `CSc1ccc(CC(NC(=O)OCc2ccccc2)C(O)C#N)cc1` (configuration not stated) gave a melting point of 123 to 125 °C.

The compound `CC(=O)OC1CCC2(C)C(=CC(=O)C3C2CCC2(C)C(OC(C)=O)CCC32)C1` (configuration not stated) returned a melting point of 220 to 221 °C.

Compound `CC(C)(C)OC(=O)C(C)(C)N1COC(CF)=C(c2ccccc2)C1=O` had a melting point of 80.5 to 82.5 °C.

Consider `CC(=O)Nc1ccc(Sc2cccnc2)cc1`, for which the melting point lay in the range of 138 to 140 °C.

`Nc1ncnc2c1c(-c1cccc(CO)c1)nn2Cc1oc2ccccc2c(=O)c1-c1ccccc1`: the melting point was in the range of 219 to 223 °C.

In turn, `COC(=O)c1cc(S(C)(=O)=O)c(Cl)cc1C` came in with a melting point of 151 °C.

Consider `N#Cc1c(N2CCCC2)cccc1[N+](=O)[O-]`, for which the melting point fell in the range of 111 to 113 °C.

Compound `CCOP(=O)(OCC)OC(=Cc1nccn1C)c1ccccc1` registered a melting point of 111 to 114 °C.

On to `CCOC(=O)c1ccc2cc(I)ccc2n1`, for which the melting point lay in the range of 119 to 121 °C.

`O=C(Nc1ccccc1)OC1C=CC2COC1O2` (configuration not stated) yielded a melting point of 107 to 109 °C.

As to `CC(/C=C/c1sccc1-c1cc2c(cc1C)C(C)(C)CCC2(C)C)=C\C(=O)O`, the melting point was 208 to 209 °C.

Compound `CC(C)C(=O)c1ccc2c(c1)CC(N1C(=O)c3ccccc3C1=O)C2` (configuration not stated) had a melting point of 138 to 140 °C.

Turning to `CC1(C)COC(=O)OC1`, the melting point was 108 to 109 °C.

Compound `Cc1cc(-n2ccnc2)c2cccc(OCc3c(Cl)ccc(S(=O)(=O)N4CCC[C@H]4C(=O)NCC4CCN(Cc5ccncc5)CC4)c3Cl)c2n1` yielded a melting point of 113 °C.

For the compound `CN(N)c1nc(=S)[nH]c2[nH]cnc12`, the melting point was determined as 245 °C.

Turning to `Cn1ncnc1COc1nn2c(-c3cc(CF)on3)nnc2c2ccccc12`, the melting point fell in the range of 250 to 252 °C.

`Cc1ccc(-c2cc(C(=O)/C=C/c3ccc(C(=O)O)cc3)cc3c2C(C)(C)CCC3(C)C)cc1`: the melting point was 242 °C.

In turn, `CCCCCCC/C=C/C(=O)NCCC(C)C` had a melting point of 28 to 31 °C.

Compound `CC(C)(C)C(=O)c1ccc(CN2C(=O)c3ccccc3C2=O)cc1` had a melting point of 138 to 140 °C.

Compound `COc1ccn2c(Cl)c(CCc3ccc4nc(N)oc4c3)nc2c1` had a melting point of 225 to 227 °C.

Turning to `Cc1cc(Br)cc(C=NO)c1`, the melting point was in the range of 128 to 129 °C.

Regarding `COc1cc(Sc2ccncc2)cc2ccoc12`, the melting point lay within 81 to 83 °C.

`CC(C)(S)C(NC(=O)c1ccc(Cl)cc1)C(=O)O` (configuration not stated) yielded a melting point of 174 °C.

`COC(=O)CCCOc1cccc(CNC(=O)C2Cc3ccccc3N2S(=O)(=O)c2ccc(-c3cccc(C(F)(F)F)c3)cc2)c1` (configuration not stated) came in with a melting point of 50 °C.

As to `Cn1c(C(=O)C(C)(C)C)cc2cc(OCc3ccccc3)ccc21`, the melting point was 101 to 103 °C.

`CS(=O)(=O)c1ccc(/C(=C\C2CCCCCC2)C(=O)O)cc1` registered a melting point of 164 to 166 °C.

`CN(Cc1ncc(C(F)(F)F)cc1Cl)C(=O)c1c(Cl)cccc1Cl` gave a melting point of 83 to 84 °C.

Turning to `Cc1cc(NC(=O)c2cnccc2C(F)(F)F)on1`, the melting point lay within 53 to 55 °C.

With `CCOC(=O)COc1ccc(C(=O)c2cccs2)c2ccccc12`, the melting point was 79 °C.

`COc1ccc(-c2cccc(-c3ccc(OC)c(F)c3)n2)cc1F` returned a melting point of 108 °C.

As for `CC(C)(Cc1cc2ccccc2[nH]1)[N+](=O)[O-]`, the melting point is 102 to 103 °C.

The compound `CC(C)C1COc2ccccc2O1` (configuration not stated) had a melting point of 124 to 125 °C.

On to `CC(=O)c1ccc(OCCCCl)c(O)c1`, for which the melting point lay within 101 to 103 °C.

Compound `C=CCOc1ccc(C(=C)C)cc1` returned a melting point of 22 to 23 °C.

Compound `COCCCNC(=O)c1cc2c(nc(C)n2C)c2c1CCC1(Cc3ccccc3C1)N2` displayed a melting point of 188 to 189 °C.

As to `Cc1cc2c(cc1C)C(C(F)(F)F)(C(F)(F)F)c1cc3c(cc1O2)Oc1cc(C)c(C)cc1C3(C(F)(F)F)C(F)(F)F`, the melting point was in the range of 242 to 243 °C.

Compound `N#CC(Cn1ccnc1)(c1ccccc1)c1ccccn1` (configuration not stated) registered a melting point of 83 to 85 °C.

Compound `N#CNC(=N)CCc1ccccc1Sc1ccccc1CCC(=N)NC#N` showed a melting point of 188 to 190 °C.

The compound `CC1C(=NO)SCC(=O)N1C` (configuration not stated) had a melting point of 205 °C.

Consider `O=[N+]([O-])c1ccc(Oc2ccc(Cl)cc2Cl)cc1Oc1ccc(Cl)cc1Cl`, for which the melting point lay in the range of 91 to 93 °C.

Compound `COc1cc(-c2cccc(C=C3SC(N4CCOCC4)=NC3=O)c2)cc(C23CC4CC(CC(C4)C2)C3)c1` registered a melting point of 234 to 238 °C.

The compound `COc1ccc(-c2cc(Cl)cc3c2OC(C(F)(F)F)C(C(=O)O)=C3)cc1` (configuration not stated) came in with a melting point of 194 to 196 °C.

Compound `CC(=O)Nc1ccc(Br)c(C)n1` yielded a melting point of 156 to 157 °C.

Take `CS(=O)(=O)Nc1ccc2c(c1)C(=O)CC1(CCN(CCc3ccc(N)c(N)c3)CC1)O2`: the melting point fell in the range of 109 to 112 °C.

With `N#Cc1c(F)c(F)cc(C(=O)O)c1F`, the melting point lay in the range of 187 to 190 °C.

The compound `c1ccc(Oc2ccc(OCn3cnc4ccccc43)cc2)cc1` registered a melting point of 112 °C.

`O=C1N(Cc2ncccc2Cl)c2ccccc2C12COc1cc3c(cc12)OCCO3` (configuration not stated): the melting point was in the range of 176 to 178 °C.

`COC(=O)c1cccnc1NC(=O)C(C)CS` (configuration not stated): the melting point lay within 50 to 52 °C.

The compound `O=C(NC1CCOCC1)c1ccc2nonc2c1` returned a melting point of 204 to 205 °C.

`Cc1cc(C#N)c(=O)[nH]c1-c1ccccc1` gave a melting point of 250 to 257 °C.

Compound `COc1ccc(-n2nc(CCCO)cc2-c2ccc(Cl)cc2)cc1` showed a melting point of 87.5 to 88 °C.

`NC(=O)CNC(=O)c1cccc(-c2cccc3cc(Cc4cccc(CO)c4)sc23)c1` registered a melting point of 155 to 156 °C.

Compound `O=C1C2=C(CCCC2)C(SSC2C3=C(CCCC3)C(=O)N2c2ccc(Cl)cc2F)N1c1ccc(Cl)cc1F` (configuration not stated) had a melting point of 146 to 147 °C.

For the compound `CC(C)Cc1ccccc1Sc1c(O)cc(-c2cccc(-c3ccccc3)c2)oc1=O`, the melting point was 187 to 188 °C.

For the compound `CN1CC[C@@H](c2c(O)cc(O)c3c(=O)cc(-c4ccccc4Br)oc23)[C@@H]1CO`, the melting point was 235 to 237 °C.

Turning to `Nc1cc(-n2cc(C(=O)O)c(=O)c3cc(F)c(N4CC(N)C4)nc32)c(F)cc1F`, the melting point was in the range of 168 to 170 °C.
